# Source: ChEMBL document CHEMBL1139006, “Synthesis and in vitro antibiotic activity of 16-membered 9-O-arylalkyloxime macrolides” (2006)
# Legend:
# Format in all cases: functional
# Streptococcus pneumoniae [1] = experiment: Antibacterial activity against Streptococcus pneumoniae ATCC 6301
# Streptococcus pneumoniae [2] = experiment: Antibacterial activity against Streptococcus pneumoniae ATCC 700671
# Streptococcus pneumoniae [3] = experiment: Antibacterial activity against macrolide resistant Streptococcus pneumoniae ATCC 700676
# Streptococcus pneumoniae [4] = experiment: Antibacterial activity against macrolide resistant Streptococcus pneumoniae ATCC 700677
# Streptococcus pneumoniae [5] = experiment: Antibacterial activity against macrolide resistant Streptococcus pneumoniae ATCC 700905
# Streptococcus pneumoniae [6] = experiment: Antibacterial activity against macrolide resistant Streptococcus pneumoniae ATCC 700906
# Streptococcus pneumoniae [7] = experiment: Antibacterial activity against Streptococcus pneumoniae ATCC 49619
# Staphylococcus aureus [8] = experiment: Antibacterial activity against Staphylococcus aureus ATCC 6538p
# Staphylococcus aureus [9] = experiment: Antibacterial activity against macrolide resistant Staphylococcus aureus ATCC 33591
# Staphylococcus aureus [10] = experiment: Antibacterial activity against macrolide resistant Staphylococcus aureus ATCC 141541
# Staphylococcus aureus [11] = experiment: Antibacterial activity against macrolide resistant Staphylococcus aureus ATCC BAA-39
# Staphylococcus aureus [12] = experiment: Antibacterial activity against macrolide resistant Staphylococcus aureus ATCC BAA-44
# Staphylococcus aureus [13] = experiment: Antibacterial activity against Staphylococcus aureus ATCC 29213
# [14] = tested on: Staphylococcus epidermidis; experiment: Antibacterial activity against Staphylococcus epidermidis ATCC 12228
# Enterococcus faecalis = experiment: Antibacterial activity against Enterococcus faecalis ATCC 51575
# Haemophilus influenzae [15] = experiment: Antibacterial activity against Haemophilus influenzae ATCC 9006
# Haemophilus influenzae [16] = experiment: Antibacterial activity against Haemophilus influenzae ATCC 49766
# Haemophilus influenzae [17] = experiment: Antibacterial activity against Haemophilus influenzae EH001
# Haemophilus influenzae [18] = experiment: Antibacterial activity against Haemophilus influenzae EH002
# Haemophilus influenzae [19] = experiment: Antibacterial activity against Haemophilus influenzae EH003
SMILES,MIC (Streptococcus pneumoniae [1]) [µg/mL],MIC (Streptococcus pneumoniae [2]) [µg/mL],MIC (Streptococcus pneumoniae [3]) [µg/mL],MIC (Streptococcus pneumoniae [4]) [µg/mL],MIC (Streptococcus pneumoniae [5]) [µg/mL],MIC (Streptococcus pneumoniae [6]) [µg/mL],MIC (Streptococcus pneumoniae [7]) [µg/mL],MIC (Staphylococcus aureus [8]) [µg/mL],MIC (Staphylococcus aureus [9]) [µg/mL],MIC (Staphylococcus aureus [10]) [µg/mL],MIC (Staphylococcus aureus [11]) [µg/mL],MIC (Staphylococcus aureus [12]) [µg/mL],MIC (Staphylococcus aureus [13]) [µg/mL],MIC [14] [µg/mL],MIC (Enterococcus faecalis) [µg/mL],MIC (Haemophilus influenzae [15]) [µg/mL],MIC (Haemophilus influenzae [16]) [µg/mL],MIC (Haemophilus influenzae [17]) [µg/mL],MIC (Haemophilus influenzae [18]) [µg/mL],MIC (Haemophilus influenzae [19]) [µg/mL]
CC[C@H]1OC(=O)C[C@@H](O)[C@H](C)[C@@H](O[C@@H]2O[C@H](C)[C@@H](O)[C@H](N(C)C)[C@H]2O)[C@@H](CC=O)C[C@@H](C)C(=N/OCCCCc2cnc3ccccc3c2)/C=C/C(C)=C/C1CO (stereo not given in full),0.025,0.025,0.025,0.025,0.025,> 12.5,0.049,0.025,> 12.5,0.2,> 12.5,> 12.5,0.2,0.2,> 12.5,6.25,6.25,,,
CC[C@H]1OC(=O)C[C@@H](O)[C@H](C)[C@@H](O[C@@H]2O[C@H](C)[C@@H](O)[C@H](N(C)C)[C@H]2O)[C@@H](CCN2CC(C)CC(C)C2)C[C@@H](C)C(=N/OCCCc2ccc3ncccc3c2)/C=C/C(C)=C/C1CO (stereo not given in full),0.025,0.049,0.025,> 12.5,0.025,> 12.5,0.025,,,,,,,,,1.56,3.12,3.12,3.12,1.56
CC[C@H]1OC(=O)C[C@@H](O)[C@H](C)[C@@H](O[C@@H]2O[C@H](C)[C@@H](O)[C@H](N(C)C)[C@H]2O)[C@@H](C=O)C[C@@H](C)C(=N\OCCCc2ccc3ncccc3c2)/C=C/C(C)=C/C1CO (stereo not given in full),0.025,0.098,0.025,> 12.5,0.025,> 12.5,0.025,,,,,,,,,1.56,3.12,3.12,6.25,3.12
CC[C@H]1OC(=O)C[C@@H](O)[C@H](C)[C@@H](O[C@@H]2O[C@H](C)[C@@H](O)[C@H](N(C)C)[C@@H]2O)[C@@H](CCN2CC(C)CC(C)C2)C[C@@H](C)C(=N/O)/C=C/C(C)=C/C1CO (stereo not given in full),0.78,1.56,6.25,> 12.5,6.25,> 12.5,1.56,3.12,> 12.5,> 12.5,> 12.5,> 12.5,12.5,> 12.5,> 12.5,,,,,
CC[C@H]1OC(=O)C[C@@H](O)[C@H](C)[C@@H](O[C@@H]2O[C@H](C)[C@@H](O)[C@H](N(C)C)[C@H]2O)[C@@H](CC=O)C[C@@H](C)C(=N\OCCCOc2ccc3ncccc3c2)/C=C/C(C)=C/C1CO (stereo not given in full),0.025,0.025,0.025,0.2,0.025,> 12.5,0.01,0.025,> 12.5,0.2,> 12.5,> 12.5,0.098,0.098,> 12.5,6.25,6.25,,,
CC[C@H]1OC(=O)C[C@@H](O)[C@H](C)[C@@H](O[C@@H]2O[C@H](C)[C@@H](O)[C@H](N(C)C)[C@@H]2O)[C@@H](CCN2CC(C)CC(C)C2)C[C@@H](C)C(=O)/C=C/C(C)=C/C1CO (stereo not given in full),0.39,0.78,1.56,> 12.5,1.56,> 12.5,0.78,0.39,> 12.5,1.56,> 12.5,> 12.5,1.56,0.78,> 12.5,,,,,
CC[C@H]1OC(=O)C[C@@H](O)[C@H](C)[C@@H](O[C@@H]2O[C@H](C)[C@@H](O)[C@H](N(C)C)[C@@H]2O)[C@@H](CCN2CC(C)CC(C)C2)C[C@@H](C)C(=N\OCCCc2ccc3ncccc3c2)/C=C/C(C)=C/C1CO (stereo not given in full),6.25,6.25,12.5,> 12.5,12.5,> 12.5,6.25,> 12.5,> 12.5,> 12.5,> 12.5,> 12.5,> 12.5,> 12.5,> 12.5,,,,,
CC[C@H]1OC(=O)C[C@@H](O)[C@H](C)[C@@H](O[C@@H]2O[C@H](C)[C@@H](O)[C@H](N(C)C)[C@@H]2O)[C@@H](CCN2CC(C)CC(C)C2)C[C@@H](C)C(=N\OCCCCc2ccc3ccccc3c2)/C=C/C(C)=C/C1CO (stereo not given in full),6.25,12.5,> 12.5,> 12.5,12.5,> 12.5,12.5,> 12.5,> 12.5,> 12.5,> 12.5,> 12.5,> 12.5,> 12.5,> 12.5,,,,,
CC[C@H]1OC(=O)C[C@@H](O)[C@H](C)[C@@H](O[C@@H]2O[C@H](C)[C@@H](O)[C@H](N(C)C)[C@@H]2O)[C@@H](CCN2CC(C)CC(C)C2)C[C@@H](C)C(=N\OCCOc2ccccc2)/C=C/C(C)=C/C1CO (stereo not given in full),0.2,0.39,0.78,> 12.5,0.39,> 12.5,0.39,0.78,> 12.5,6.25,> 12.5,> 12.5,6.25,6.25,> 12.5,,,,,
CC[C@H]1OC(=O)C[C@@H](O)[C@H](C)[C@@H](O[C@@H]2O[C@H](C)[C@@H](O)[C@H](N(C)C)[C@@H]2O)[C@@H](CCN2CC(C)CC(C)C2)C[C@@H](C)C(=N\OCc2ccc(F)cc2)/C=C/C(C)=C/C1CO (stereo not given in full),0.39,0.39,0.39,> 12.5,0.39,> 12.5,0.39,0.78,> 12.5,3.12,> 12.5,> 12.5,3.12,3.12,> 12.5,,,,,
CC[C@H]1OC(=O)C[C@@H](O)[C@H](C)[C@@H](O[C@@H]2O[C@H](C)[C@@H](O)[C@H](N(C)C)[C@@H]2O)[C@@H](CCN2CC(C)CC(C)C2)C[C@@H](C)C(=N\OCC(=O)N2CCN(c3ccccc3)CC2)/C=C/C(C)=C/C1CO (stereo not given in full),0.049,0.098,4.56,> 12.5,0.78,> 12.5,0.049,0.39,> 12.5,3.12,> 12.5,> 12.5,1.56,0.78,> 12.5,,,,,
CC[C@H]1OC(=O)C[C@@H](O)[C@H](C)[C@@H](O[C@@H]2O[C@H](C)[C@@H](O)[C@H](N(C)C)[C@@H]2O)[C@@H](CCN2CC(C)CC(C)C2)C[C@@H](C)C(=N/OCCCCc2ccc3ncccc3c2)/C=C/C(C)=C/C1CO (stereo not given in full),1.56,3.12,6.25,> 12.5,6.25,> 12.5,6.25,6.25,> 12.5,> 12.5,> 12.5,> 12.5,12.5,> 12.5,> 12.5,,,,,
CC[C@H]1OC(=O)[C@H](C)C(=O)[C@H](C)[C@@H](O[C@@H]2O[C@H](C)C[C@H](N(C)C)[C@H]2O)[C@](C)(OC)C[C@@H](C)C(=O)[C@H](C)[C@H]2N(CCCCn3cnc(-c4cccnc4)c3)C(=O)O[C@]12C [TELITHROMYCIN],0.025,0.025,0.098,0.025,0.025,0.2,0.049,,,,,,,,,1.56,3.12,1.56,6.25,1.56
CC[C@H]1OC(=O)C[C@@H](O)[C@H](C)[C@@H](O[C@@H]2O[C@H](C)[C@@H](O)[C@H](N(C)C)[C@H]2O)[C@@H](CCN2C[C@H](C)C[C@H](C)C2)C[C@@H](C)C(=O)/C=C/C(C)=C/[C@@H]1CO[C@@H]1O[C@H](C)[C@@H](O)[C@@H](OC)[C@H]1OC [TILMICOSIN],0.39,0.78,0.78,6.25,1.56,> 12.5,1.56,0.098,> 12.5,0.39,> 12.5,> 12.5,0.2,0.098,> 12.5,,,,,
CC[C@H]1OC(=O)C[C@@H](O)[C@H](C)[C@@H](O[C@@H]2O[C@H](C)[C@@H](O[C@H]3C[C@@](C)(O)[C@@H](O)[C@H](C)O3)[C@H](N(C)C)[C@H]2O)[C@@H](CC=O)C[C@@H](C)C(=O)/C=C/C(C)=C/[C@@H]1CO[C@@H]1O[C@H](C)[C@@H](O)[C@@H](OC)[C@H]1OC [TYLOSIN],0.098,0.2,0.2,> 12.5,0.2,> 12.5,0.098,0.2,> 12.5,1.56,> 12.5,> 12.5,1.56,0.39,> 12.5,,,,,
